# Assay results taken from patent US20240150287A1, “N-(BENZOYL)-PHENYLALANINE COMPOUND, PHARMACEUTICAL COMPOSITION CONTAINING SAME, AND USE THEREOF” (Hangzhou Apeloa Medicine Research Institute Co., Ltd., priority 2021, published 2024).
# Target: recombinant human integrin α4β7 (binding to recombinant human MAdCAM-1) (Homo sapiens (Human), UniProt P13612+P26010)
# Assay: MAdCAM-1/α4β7 integrin binding inhibition activity evaluation test (α4β7-MAdCAM-1 ELISA)
# Conditions: plate-coated recombinant human MAdCAM-1, recombinant human α4β7, 2 h room temperature, free form of compound
# Experimental: EXAMPLE: MADCAM-1/α4β7 INTEGRIN BINDING INHIBITION ACTIVITY EVALUATION TEST (α4β7-MADCAM-1 ELISA)
# Coat the 96-well microplate (Costar) with 50 μL of recombinant human MAdCAM-1 (R&D Systems) solution per well, and incubate overnight (12-18 hours) at 4° C. Wash three times with 150 μL of TBS buffer per well. Block plate with 150 μL per well with blocking buffer for 1 h at 37° C. Wash three times with 150 μL of TBS buffer per well. Dilute the recombinant human integrin α4β7 (R&D Systems) with TBS buffer containing 0.1% bovine serum albumin (BSA), then add to the 96 well plate with 50 μL per well. Add 1 μL of test compound or DMSO, cover, incubate at room temperature for 2 h, wash three times with 150 μL of TBS buffer per well. Dilute the anti-β7 antibody (R&D Systems) with 0.1% BSA TBS buffer, then add to the 96 well plate with 50 μL per well, cover, incubate at room temperature for 1 h, wash three times with 150 μL of TBS buffer per well. Add 50 μL of streptavidin-HRP (R&D Systems) per well, incubate at room temperature for 20 min, wash three times with 150 μL of TBS buffer per well. Add 50 μL of TMB substrate solution (Sigma) per well, incubate at room temperature for 5-30 min, and add 25 μL of stop solution per well to stop the reaction. Finally, measure absorbance at 450 nm with microplate reader (SpectraMax 340PC. Molecular Devices). Repeat the test to find the binding rate of cells at each concentration when the absorbance of the well without the test substance is used as 100%, and calculate the concentration IC50 that causes 50% binding inhibition and summarize the results in Table 1.
# It should be stated that, as a test compound, the free form of the compound synthesized in the above examples is used.
# Sequence of recombinant human integrin α4β7 (binding to recombinant human MAdCAM-1) (P13612 34-970): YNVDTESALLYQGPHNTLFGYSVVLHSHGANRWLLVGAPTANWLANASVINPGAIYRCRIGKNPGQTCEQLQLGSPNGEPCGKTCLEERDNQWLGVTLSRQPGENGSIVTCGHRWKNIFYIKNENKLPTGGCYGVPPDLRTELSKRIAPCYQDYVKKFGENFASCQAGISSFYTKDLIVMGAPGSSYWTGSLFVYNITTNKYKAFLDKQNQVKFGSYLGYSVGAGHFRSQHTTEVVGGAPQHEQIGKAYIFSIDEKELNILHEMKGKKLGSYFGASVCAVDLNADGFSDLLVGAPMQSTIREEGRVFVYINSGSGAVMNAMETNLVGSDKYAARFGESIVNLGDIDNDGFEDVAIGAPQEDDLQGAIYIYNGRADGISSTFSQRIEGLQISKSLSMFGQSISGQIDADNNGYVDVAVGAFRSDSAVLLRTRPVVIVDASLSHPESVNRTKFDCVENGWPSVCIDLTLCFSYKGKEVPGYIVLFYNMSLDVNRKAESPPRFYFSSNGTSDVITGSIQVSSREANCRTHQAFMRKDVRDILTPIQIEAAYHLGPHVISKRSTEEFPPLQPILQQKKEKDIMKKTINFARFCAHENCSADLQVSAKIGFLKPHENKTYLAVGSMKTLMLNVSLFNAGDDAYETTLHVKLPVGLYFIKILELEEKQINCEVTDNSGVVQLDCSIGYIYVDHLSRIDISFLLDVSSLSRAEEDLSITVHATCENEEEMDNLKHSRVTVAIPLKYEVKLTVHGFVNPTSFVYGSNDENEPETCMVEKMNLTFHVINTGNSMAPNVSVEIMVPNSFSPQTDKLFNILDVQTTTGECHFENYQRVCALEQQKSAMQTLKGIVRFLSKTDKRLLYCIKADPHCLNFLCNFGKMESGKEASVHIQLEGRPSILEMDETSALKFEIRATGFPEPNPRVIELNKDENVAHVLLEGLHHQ
# Sequence of recombinant human integrin α4β7 (binding to recombinant human MAdCAM-1) (P26010 20-723): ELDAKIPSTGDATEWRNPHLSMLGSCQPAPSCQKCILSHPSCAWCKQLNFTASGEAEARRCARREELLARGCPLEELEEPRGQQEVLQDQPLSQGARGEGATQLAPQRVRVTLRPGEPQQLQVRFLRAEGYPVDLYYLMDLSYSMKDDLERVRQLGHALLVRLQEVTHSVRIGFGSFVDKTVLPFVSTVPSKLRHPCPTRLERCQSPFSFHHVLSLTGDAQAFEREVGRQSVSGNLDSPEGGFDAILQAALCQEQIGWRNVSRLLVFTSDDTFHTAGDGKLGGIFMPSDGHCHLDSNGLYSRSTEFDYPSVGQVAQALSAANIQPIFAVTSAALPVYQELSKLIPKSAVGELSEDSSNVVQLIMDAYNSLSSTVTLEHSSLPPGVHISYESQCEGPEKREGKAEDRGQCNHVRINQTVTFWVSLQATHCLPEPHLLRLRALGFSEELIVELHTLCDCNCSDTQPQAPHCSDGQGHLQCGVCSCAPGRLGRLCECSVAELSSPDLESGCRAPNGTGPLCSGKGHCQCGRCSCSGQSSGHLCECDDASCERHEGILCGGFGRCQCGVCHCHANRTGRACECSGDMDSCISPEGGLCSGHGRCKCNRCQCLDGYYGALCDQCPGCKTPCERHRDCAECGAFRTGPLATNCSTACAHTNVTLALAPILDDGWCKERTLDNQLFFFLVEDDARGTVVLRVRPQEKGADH
row,IC50 [nM],Structure (SMILES)
1,14.3,"O=C(N[C@@H](Cc1ccc(N2C(=O)C3(CC3)c3cc(F)c(F)cc32)cc1)C(=O)O)c1c(F)cccc1Cl [Example 1, (S)-2-(2-chloro-6-fluorobenzamide)-3-(4-(5′,6′-difluoro-2′-oxospirino[cyclopropane-1,3′-indoline]-1′-yl)phenyl)propionic acid]"
2,2.57,"O=C(N[C@@H](Cc1ccc(N2C(=O)C3(CC3)c3cccc(Cl)c32)cc1)C(=O)O)c1c(F)cccc1Cl [Example 2, (S)-3-(4-(7′-chloro-2′-oxospiro[cyclopropane-1,3′-indoline]-1′-yl)phenyl)-2-(2-chloro-6-fluorobenzamide) propionic acid]"
3,5.48,"COc1cccc2c1N(c1ccc(C[C@H](NC(=O)c3c(Cl)cccc3Cl)C(=O)O)cc1)C(=O)C21CC1 [Example 3, (S)-2-(2,6-dichlorobenzamido)-3-(4-(7′-methoxy-2′-oxospiro[cyclopropane-1,3′-indoline]-1′-yl)phenyl)propionic acid]"
4,2.54,"O=C(N[C@@H](Cc1ccc(N2C(=O)C3(CC3)c3ccc(F)cc32)cc1)C(=O)O)c1c(Cl)cccc1Cl [Example 4, (S)-2-(2,6-dichlorobenzamido)-3-(4-(6′-fluoro-2′-oxospiro[cyclopropane-1,3′-indoline]-1′-yl)phenyl)propionic acid]"
5,2.87,"O=C(N[C@@H](Cc1ccc(N2C(=O)C3(CC3)c3cccc(F)c32)cc1)C(=O)O)c1c(Cl)cccc1Cl [Example 5, (S)-2-(2,6-dichlorobenzoylamino)-3-(4-(7′-fluoro-2′-oxospiro[cyclopropane-1,3′-indoline]-1′-yl)phenyl)propionic acid]"
6,5.81,"O=C(N[C@@H](Cc1ccc(N2C(=O)C3(CC3)c3ccccc32)cc1)C(=O)O)c1c(Cl)cccc1Cl [Example 6, (S)-2-(2,6-dichlorobenzamido)-3-(4-(2′-oxospiro[cyclopropane-1,3′-indoline]-1′-yl)phenyl)propionic acid]"
7,16.1,"O=C(N[C@@H](Cc1ccc(N2C(=O)C3(CCOCC3)c3cccc(Cl)c32)cc1)C(=O)O)c1c(F)cccc1Cl [Example 7, (S)-3-(4-(7-chloro-2-oxo-2′,3′,5′,6′-tetrahydrospiro[indoline-3,4′-pyran]-1-yl)phenyl)-2-(2-chloro-6-fluorobenzamide)propionic acid]"
8,17.6,"O=C(N[C@@H](Cc1ccc(N2C(=O)C3(CC3)c3cc(F)c(Cl)cc32)cc1)C(=O)O)c1c(F)cccc1Cl [Example 8, (S)-3-(4-(6′-chloro-5′-fluoro-2′-oxospiro[cyclopropane-1,3′-indoline]-1′-yl)phenyl)-2-(2-chloro-6-fluorobenzamide)propionic acid]"
9,95.5,"O=C(N[C@@H](Cc1ccc(N2C(=O)C3(CC3)c3cc(F)ccc32)cc1)C(=O)O)c1c(F)cccc1Cl [Example 9, (S)-2-(2-chloro-6-fluorobenzamide)-3-(4-(5′-fluoro-2′-oxospiro[cyclopropane-1,3′-indoline]-1′-yl)phenyl)propionic acid]"
10,38.8,"CC1(C)C(=O)N(c2ccc(C[C@H](NC(=O)c3c(F)cccc3Cl)C(=O)O)cc2)c2c(Cl)cccc21 [Example 10, (S)-3-(4-(7-chloro-3,3-dimethyl-2-oxoindoline-1-yl)phenyl)-2-(2-chloro-6-fluorobenzamide)propionic acid]"
11,3.05,"CN(C)c1cc2c(cc1F)C1(CC1)C(=O)N2c1ccc(C[C@H](NC(=O)c2c(F)cccc2Cl)C(=O)O)cc1 [Example 11, (S)-2-(2-chloro-6-fluorobenzamide)-3-(4-(6′-(dimethylamino)-5′-fluoro-2′-oxospiro[cyclopropane-1,3′-indoline]-1′-yl)phenyl)propionic acid]"
12,4.15,"CN(C)c1ccc2c(c1)C1(CC1)C(=O)N2c1ccc(C[C@H](NC(=O)c2c(F)cccc2Cl)C(=O)O)cc1 [Example 12, (S)-2-(2-chloro-6-fluorobenzamide)-3-(4-(5′-(dimethylamino)-2′-oxospiro[cyclopropane-1,3′-indoline]-1′-yl)phenyl)propionic acid]"
13,8.02,O=C(N[C@@H](Cc1ccc(N2C(=O)C3(CC3)c3ccc(F)cc32)cc1)C(=O)O)c1c(F)cccc1Cl [Example 13]
14,6.21,"O=C(N[C@@H](Cc1ccc(N2C(=O)C3(CC3)c3cccc(F)c32)cc1)C(=O)O)c1c(F)cccc1Cl [Example 14, (S)-2-(2-chloro-6-fluorobenzamide)-3-(4-(7-fluoro-2′-oxospiro[cyclopropane-1,3′-indoline]-1′-yl)phenyl)propionic acid]"
15,5.62,"O=C(N[C@@H](Cc1ccc(N2C(=O)C3(CC3)c3ccc(F)c(F)c32)cc1)C(=O)O)c1c(F)cccc1Cl [Example 15, (S)-2-(2-chloro-6-fluorobenzamide)-3-(4-(6′,7′-difluoro-2′-oxospirino[cyclopropane-1,3′-indoline]-1′-yl)phenyl)propionic acid]"
16,0.75,"O=C(N[C@@H](Cc1ccc(N2C(=O)C3(CC3)c3cccnc32)cc1)C(=O)O)c1c(Cl)cccc1Cl [Example 16, (S)-2-(2,6-dichlorobenzamido)-3-(4-(2′-oxospiro[cyclopropane-1,3′-pyrrolo[2,3-b]pyridine]-1′(2′H)-yl)phenyl)propionic acid]"
17,64.2,"O=C(N[C@@H](Cc1ccc(N2C(=O)C3(CC3)c3cccc(Cl)c32)cc1)C(=O)O)c1c(Cl)cc(Cl)cc1Cl [Example 17, (S)-3-(4-(7′-chloro-2′-oxospiro[cyclopropane-1,3′-indoline]-1′-yl)phenyl)-2-(2,4,6-trichlorobenzoylamino)propionic acid]"
18,11.4,"O=C(N[C@@H](Cc1ccc(N2C(=O)C3(CC3)c3cccc(Cl)c32)cc1)C(=O)O)c1c(Cl)cc(N2CCOCC2)cc1Cl [Example 19, (S)-3-(4-(7′-chloro-2′-oxospiro[cyclopropane-1,3′-indoline]-1′-yl)phenyl)-2-(2,6-dichloro-4-morpholinobenzoylamino)propionic acid]"
19,4.15,O=C(N[C@@H](Cc1ccc(N2C(=O)C3(CC3)c3cccc(Cl)c32)cc1)C(=O)O)c1c(Cl)cc(N2CC3CC2CO3)cc1Cl (stereo partly drawn) [Example 20]
20,23.7,"O=C(N[C@@H](Cc1ccc(N2C(=O)C3(CC3)c3cccc(Cl)c32)cc1)C(=O)O)c1c(Cl)cc(N2CCC(N3CCOCC3)CC2)cc1Cl [Example 21, (S)-3-(4-(7′-chloro-2′-oxospiro[cyclopropane-1,3′-indoline]-1′-yl)phenyl)-2-(2,6-dichloro-4-(4-morpholinopiperidin-1-yl)benzoylamino)propionic acid]"
21,1.19,"Cn1c(=O)n(-c2ccc(C[C@H](NC(=O)c3c(F)cccc3Cl)C(=O)O)cc2)c2c(Cl)cccc21 [Example 22, (S)-3-(4-(7-chloro-3-methyl-2-oxo-2,3-dihydro-1H-benzo-1H-imidazol-1-yl)phenyl)-2-(2-chloro-6-fluorobenzamide)propionic acid]"
22,143,"O=C(N[C@@H](Cc1ccc(-n2c(=O)n(C3CC3)c3cc(Cl)ccc32)cc1)C(=O)O)c1c(Cl)cccc1Cl [Example 23, (S)-3-(4-(5-chloro-3-cyclopropyl-2-oxo-2,3-dihydro-1H-benzo[d]imidazol-1-yl)phenyl)-2-(2,6-dichlorobenzamido)propionic acid]"
23,5.67,"O=C(N[C@@H](Cc1ccc(-n2c(=O)n(C3CC3)c3ccc(Cl)cc32)cc1)C(=O)O)c1c(Cl)cccc1Cl [Example 24, (S)-3-(4-(6-chloro-3-cyclopropyl-2-oxo-2,3-dihydro-1H-benzo[d]imidazol-1-yl)phenyl)-2-(2,6-dichlorobenzamido)propionic acid]"
24,7.5,"O=C(N[C@@H](Cc1ccc(-n2c(=O)n(C3CC3)c3cccc(Cl)c32)cc1)C(=O)O)c1c(Cl)cccc1Cl [Example 25, (S)-3-(4-(7-chloro-3-cyclopropyl-2-oxo-2,3-dihydro-1H-benzo[d]imidazol-1-yl)phenyl)-2-(2,6-dichlorobenzamido)propionic acid]"
25,160,"Cn1c(=S)n(-c2ccc(C[C@H](NC(=O)c3c(F)cccc3Cl)C(=O)O)cc2)c2c(Cl)cccc21 [Example 26, (S)-3-(4-(7-chloro-3-methyl-2-thio-2,3-dihydro-1H-benzo[d]imidazol-1-yl)phenyl)-2-(2-chloro-6-fluorobenzoylamino)propionic acid]"
26,8.81,"O=C(N[C@@H](Cc1ccc(-n2c(=O)n(C3CC3)c3cccc(F)c32)cc1)C(=O)O)c1c(F)cccc1Cl [Example 27, (S)-2-(2-chloro-6-fluorobenzoylamino)-3-(4-(3-cyclopropyl-7-fluoro-2-oxo-2,3-dihydro-1H-benzo [d]imidazol-1-yl)phenyl)propionic acid]"
27,10.9,"O=C(N[C@@H](Cc1ccc(-n2c(=O)n(C3CCOCC3)c3cccc(Cl)c32)cc1)C(=O)O)c1c(F)cccc1Cl [Example 28, (S)-3-(4-(7-chloro-2-oxo-3-(tetrahydro-2H-pyran-4-yl)-2,3-dihydro-1H-benzo[d]imidazol-1-yl)phenyl)-2-(2-chloro-6-fluorobenzoylamino)propionic acid]"
